The target of one test is T1, p38 alpha (Homo sapiens, UniProt Q16539).
T1 construct: purchased Invitrogen PV3304
In words: P38 alpha enzyme inhibition assay (Alphascreen kinase activity assay). The format is biochemical. The following applies: 100 pM p38 alpha, 2 hours preincubation at 25° C., 250 μM ATP, ATF-2 fusion protein; read-out: p38α inhibition. Put shortly:
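Phosphorylation of ATF-2 fusion protein (0.3 μg/ml) read by AlphaScreen with anti-phospho-ATF2 antibody after 1 h kinase reaction at 25 °C, initiated by 250 μM ATP. Compounds first incubated 2 h at 25 °C with 100 pM p38 alpha in pH 7.5 HEPES buffer, 1% DMSO. IC50 derived from concentration-response data.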
For orientation: Bead proximity is the source of the signal in Alpha formats.

The test system of test [1] is Peripheral Blood Mononuclear Cells (PBMCs), TNFα release. In words: LPS-stimulated PBMC TNFα release assay. In kind it is cell-based. To be noted: human PBMC, LPS (10 ng/ml), 18 h, compound 1 h before LPS; read-out: LPS-stimulated PBMC TNFα release inhibition. In outline:
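TNFα in cell-free supernatant, read on MSD plates, gave % inhibition curves and IC50 (≥3 separate experiments). Healthy-donor PBMCs had 1 h compound exposure at 37 °C in 1% FBS medium, then 18 h stimulation with 10 ng/ml LPS, after a 3 h serum-free rest.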

The values below come from US10364245B2 (CHIESI FARMACEUTICI S.p.A., priority 2017, dated 2019).

T1 sequence (Q16539 whole entry): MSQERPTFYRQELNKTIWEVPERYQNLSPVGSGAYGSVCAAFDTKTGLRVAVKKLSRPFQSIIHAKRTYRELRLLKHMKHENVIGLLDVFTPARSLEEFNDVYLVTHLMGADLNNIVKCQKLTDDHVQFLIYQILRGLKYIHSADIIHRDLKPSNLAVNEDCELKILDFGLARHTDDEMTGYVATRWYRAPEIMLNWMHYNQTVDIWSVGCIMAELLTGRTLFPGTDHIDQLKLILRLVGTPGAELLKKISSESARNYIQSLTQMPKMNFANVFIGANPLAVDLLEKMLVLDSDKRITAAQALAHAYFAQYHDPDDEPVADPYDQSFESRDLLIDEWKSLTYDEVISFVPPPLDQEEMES

As to `CCN(CC)c1nnc2ccc(O[C@@H]3CC[C@H](NC(=O)Nc4cc(C(C)(C)C)nc(C(=O)NCC(C)(C)N(C)C)n4)c4ccccc43)cn12` [Example 143, 4-(tert-butyl)-6-(3-((1S,4R)-4-((3-(diethylamino)-[1,2,4]triazolo[4,3-a]pyridin-6-yl)oxy)-1,2,3,4-tetrahydronaphthalen-1-yl)ureido)-N-(2-(dimethylamino)-2-methylpropyl)pyrimidine-2-carboxamide], the IC50 is below 1 nM at p38 alpha and 1 to 5 nM in test [1].
For `CC(C)(C)c1cc(NC(=O)N[C@H]2CC[C@@H](Oc3ccc4nnc(C(C)(C)C)n4c3)c3ccccc32)nc(C(=O)NCCCN2CCOCC2)n1` [Example 80, 4-(tert-butyl)-6-(3-((1S,4R)-4-((3-(tert-butyl)-[1,2,4]triazolo[4,3-a]pyridin-6-yl)oxy)-1,2,3,4-tetrahydronaphthalen-1-yl)ureido)-N-(3-morpholinopropyl)-pyrimidine-2-carboxamide], in that order: 1 to 10 nM and 1 to 5 nM.
In the case of `CC[C@H](C)c1nnc2ccc(O[C@@H]3CC[C@H](NC(=O)Nc4cc(C(C)(C)C)nc(C(=O)NCCN(C)CC)n4)c4ccccc43)cn12` [Example 146, 4-(tert-butyl)-6-(3-((1S,4R)-4-((3-((S)-sec-butyl)-[1,2,4]triazolo[4,3-a]pyridin-6-yl)oxy)-1,2,3,4-tetrahydronaphthalen-1-yl)ureido)-N-(2-(ethyl(methyl)amino)-ethyl)pyrimidine-2-carboxamide], the IC50 on p38 alpha is below 1 nM; in test [1], 1 to 5 nM.
For `CN1CCN(C(C)(C)c2nnc3ccc(O[C@@H]4CC[C@H](NC(=O)Nc5cc(CO)nc(C(C)(C)C)c5)c5ccccc54)cn23)CC1` [Example 198, 1-(2-(tert-butyl)-6-(hydroxymethyl)pyridin-4-yl)-3-((1S,4R)-4-((3-(2-(4-methylpiperazin-1-yl)propan-2-yl)-[1,2,4]triazolo[4,3-a]pyridin-6-yl)oxy)-1,2,3,4-tetrahydronaphthalen-1-yl)urea], in that order: below 1 nM and above 5 nM.
For `COc1ncc(C(C)(C)C)cc1NC(=O)N[C@H]1CC[C@@H](Oc2ccc3nnc([C@]4(C)CCCN4C)n3c2)c2ccccc21` [Example 52, 1-(5-(tert-Butyl)-2-methoxypyridin-3-yl)-3-((1S,4R)-4-((3-((S)-1,2-dimethylpyrrolidin-2-yl)-[1,2,4]triazolo[4,3-a]pyridin-6-yl)oxy)-1,2,3,4-tetrahydronaphthalen-1-yl)urea], in that order: 1 to 10 nM and below 1 nM.
For `COC(C)(C)c1nnc2ccc(O[C@@H]3CC[C@H](NC(=O)Nc4cc(C(C)(C)C)nc(C(=O)NCCCN5CCOCC5)n4)c4ccccc43)cn12` [Example 124], in that order: 1 to 10 nM and 1 to 5 nM.
`CCC(C)(C)c1nnc2ccc(O[C@@H]3CC[C@H](NC(=O)Nc4cc(C(C)(C)C)nc(C(=O)NCCCN5CCOCC5)n4)c4ccccc43)cn12` [Example 132, 4-(tert-butyl)-N-(3-morpholinopropyl)-6-(3-((1S,4R)-4-((3-(tert-pentyl)-[1,2,4]triazolo[4,3-a]pyridin-6-yl)oxy)-1,2,3,4-tetrahydronaphthalen-1-yl)ureido)pyrimidine-2-carboxamide]: the IC50 on p38 alpha was below 1 nM; in test [1], 1 to 5 nM.
For `COCCN(C)CCNC(=O)c1nc(NC(=O)N[C@H]2CC[C@@H](Oc3ccc4nnc(C(C)C)n4c3)c3ccccc32)cc(C(C)(C)C)n1` [Example 70, 4-(tert-butyl)-6-(3-((1S,4R)-4-((3-isopropyl-[1,2,4]triazolo[4,3-a]pyridin-6-yl)oxy)-1,2,3,4-tetrahydronaphthalen-1-yl)ureido)-N-(2-((2-methoxyethyl)(methyl)amino)ethyl)pyrimidine-2-carboxamide], in that order: 1 to 10 nM and above 5 nM.
Take `COCCN(C)C(C)(C)CNC(=O)c1nc(NC(=O)N[C@H]2CC[C@@H](Oc3ccc4nnc(C(C)(C)COC)n4c3)c3ccccc32)cc(C(C)(C)C)n1` [Example 178, 4-(tert-butyl)-6-(3-((1S,4R)-4-((3-(1-methoxy-2-methylpropan-2-yl)-[1,2,4]triazolo[4,3-a]pyridin-6-yl)oxy)-1,2,3,4-tetrahydronaphthalen-1-yl)ureido)-N-(2-((2-methoxyethyl)(methyl)-amino)-2-methylpropyl)pyrimidine-2-carboxamide]: the IC50 on p38 alpha was in the range of 1 to 10 nM; in test [1], 1 to 5 nM.
Take `CN(CCO)C(=O)c1nc(NC(=O)N[C@H]2CC[C@@H](Oc3ccc4nnc(C(C)(C)C)n4c3)c3ccccc32)cc(C(C)(C)C)n1` [Example 82, 4-(tert-butyl)-6-(3-((1S,4R)-4-((3-(tert-butyl)-[1,2,4]triazolo[4,3-a]pyridin-6-yl)oxy)-1,2,3,4-tetrahydronaphthalen-1-yl)ureido)-N-(2-hydroxyethyl)-N-methylpyrimidine-2-carboxamide]: the IC50 at p38 alpha was 1 to 10 nM; in test [1] it was above 5 nM.
The matching figures for `CC(C)(C)c1cc(NC(=O)N[C@H]2CC[C@@H](Oc3ccc4nnc(C(C)(C)C)n4c3)c3ccccc32)cc(C(=O)NCCN2CC(O)C2)n1` [Example 197, 6-(tert-butyl)-4-(3-((1S,4R)-4-((3-(tert-butyl)-[1,2,4]triazolo[4,3-a]pyridin-6-yl)oxy)-1,2,3,4-tetrahydronaphthalen-1-yl)ureido)-N-(2-(3-hydroxyazetidin-1-yl)ethyl)picolinamide]: below 1 nM and above 5 nM.
For `CN1CC[C@@H](NC(=O)c2nc(NC(=O)N[C@H]3CC[C@@H](Oc4ccc5nnc(C(C)(C)C)n5c4)c4ccccc43)cc(C(C)(C)C)n2)C1` [Example 129, 4-(tert-butyl)-6-(3-((1S,4R)-4-((3-(tert-butyl)-[1,2,4]triazolo[4,3-a]pyridin-6-yl)oxy)-1,2,3,4-tetrahydronaphthalen-1-yl)ureido)-N-((R)-1-methylpyrrolidin-3-yl)pyrimidine-2-carboxamide], in that order: below 1 nM and above 5 nM.
The matching figures for `CC(C)(C)c1cc(NC(=O)N[C@H]2CC[C@@H](Oc3ccc4nnc(C(C)(C)C)n4c3)c3ccccc32)nc(C(=O)NCCN2CC[C@@H](O)C2)n1` [Example 93, 4-(tert-butyl)-6-(3-((1S,4R)-4-((3-(tert-butyl)-[1,2,4]triazolo[4,3-a]pyridin-6-yl)oxy)-1,2,3,4-tetrahydronaphthalen-1-yl)ureido)-N-(2-((R)-3-hydroxypyrrolidin-1-yl)ethyl)pyrimidine-2-carboxamide]: below 1 nM and above 5 nM.
Consider `CN1CC[C@H](NC(=O)c2nc(NC(=O)N[C@H]3CC[C@@H](Oc4ccc5nnc(C(C)(C)C)n5c4)c4ccccc43)cc(C(C)(C)C)n2)C1` [Example 136, 4-(tert-butyl)-6-(3-((1S,4R)-4-((3-(tert-butyl)-[1,2,4]triazolo[4,3-a]pyridin-6-yl)oxy)-1,2,3,4-tetrahydronaphthalen-1-yl)ureido)-N-((S)-1-methylpyrrolidin-3-yl)pyrimidine-2-carboxamide], for which the IC50 on p38 alpha is below 1 nM; in test [1], above 5 nM.
Take `CN(C)CCNC(=O)c1cc(NC(=O)N[C@H]2CC[C@@H](Oc3ccc4nnc(C(C)(C)C)n4c3)c3ccccc32)cc(C(C)(C)C)n1` [Example 186, 6-(tert-butyl)-4-(3-((1S,4R)-4-((3-(tert-butyl)-[1,2,4]triazolo[4,3-a]pyridin-6-yl)oxy)-1,2,3,4-tetrahydronaphthalen-1-yl)ureido)-N-(2-(dimethylamino)ethyl)-picolinamide]: the IC50 (on p38 alpha; in test [1]) was below 1 nM each time.
Consider `CN(C)CCNC(=O)c1nc(NC(=O)N[C@H]2CC[C@@H](Oc3ccc4nnc(C5CCCC5)n4c3)c3ccccc32)cc(C(C)(C)C)n1` [Example 74, 4-(tert-butyl)-6-(3-((1S,4R)-4-((3-cyclopentyl-[1,2,4]triazolo[4,3-a]pyridin-6-yl)oxy)-1,2,3,4-tetrahydronaphthalen-1-yl)ureido)-N-(2-(dimethylamino)ethyl)-pyrimidine-2-carboxamide], for which the IC50 at p38 alpha is 1 to 10 nM; in test [1], above 5 nM.
In the case of `CC(C)(C)c1cc(NC(=O)N[C@H]2CC[C@@H](Oc3ccc4nnc(C(C)(C)C)n4c3)c3ccccc32)nc(CNC(=O)CCN2CCOCC2)n1` [Example 103, N-((4-(tert-butyl)-6-(3-((1S,4R)-4-((3-(tert-butyl)-[1,2,4]-triazolo[4,3-a]pyridin-6-yl)oxy)-1,2,3,4-tetrahydronaphthalen-1-yl)ureido)pyrimidin-2-yl)methyl)-3-morpholinopropanamide], the IC50 on p38 alpha was 1 to 10 nM; in test [1], above 5 nM.
With `CCN(C)CCNC(=O)c1nc(NC(=O)N[C@H]2CC[C@@H](Oc3ccc4nnc(C(C)(C)C)n4c3)c3ccccc32)cc(C(C)(C)C)n1` [Example 114, 4-(tert-butyl)-6-(3-((1S,4R)-4-((3-(tert-butyl)-[1,2,4]triazolo[4,3-a]pyridin-6-yl)oxy)-1,2,3,4-tetrahydronaphthalen-1-yl)ureido)-N-(2-(ethyl(methyl)amino)-ethyl)pyrimidine-2-carboxamide], the IC50 (at p38 alpha; in test [1]) was below 1 nM each time.
